Data: PubChem BioAssay (NCI)
“And” between values parts separate entries of the source, which are not always exact repeats. Equal values may be shown once.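 Method: 48-hour compound exposure of cells in 96-well plates, five concentrations, linear interpolation of endpoints. GI50 is the concentration that inhibits growth by half. TGI is the concentration that stops growth completely.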

Legend:
Test in all cases: inhibition of tumour cell growth, NCI panel, 48 h
[1] = system: A498 renal
[2] = system: HCT-116 colon
[3] = system: OVCAR-3 ovarian
[4] = system: SK-MEL-5 melanoma
[5] = system: HOP-92 NSCLC
[6] = system: TK-10 renal
[7] = system: CCRF-CEM leukemia
[8] = system: MOLT-4 leukemia
[9] = system: SN12C renal
[10] = system: PC-3 prostate

Row | Structure (SMILES) | TGI [1] | TGI [2] | TGI [3] | TGI [4] | TGI [5] | TGI [6] | TGI [7] | TGI [8] | TGI [9] | GI50 [1] | GI50 [2] | GI50 [3] | GI50 [4] | GI50 [6] | GI50 [7] | GI50 [9] | GI50 [8] | TGI [10] | GI50 [10] | GI50 [5]
1 | O=C(N/N=C(/c1nc2ccc(Cl)cc2[nH]c1=O)C(O)c1ccc(Cl)cc1Cl)c1ccncc1 (centres undefined) | > 100 µM | > 100 µM | > 100 µM | > 100 µM | > 100 µM | > 100 µM | > 100 µM | > 100 µM |  |  |  |  |  |  |  |  |  |  |  | 
2 | Cn1cnc([N+](=O)[O-])c1Sc1ccccn1 | > 100 µM | > 100 µM | > 100 µM | > 100 µM | > 100 µM | > 100 µM | > 100 µM | > 100 µM | > 100 µM |  |  |  |  |  |  |  |  |  |  | 
3 | S=c1nc(-c2ccccc2)oc(=NC2CCCCC2)n1C1CCCCC1 | 13 µM | 17.1 µM | 11.3 µM | 9.87 µM | 0.079 µM | 8.57 µM | 8.87 µM | 6.01 µM | 18.7 µM | 3.61 µM | 4.19 µM | 3.54 µM | 2.62 µM | 4.31 µM | 1.75 µM | 3.94 µM | 1.54 µM |  |  | 
4 | O=c1[nH]cc(CS(=O)(=O)Cc2c[nH]c(=O)[nH]c2=O)c(=O)[nH]1 | > 100 µM | > 100 µM |  | > 100 µM | > 100 µM | > 100 µM |  | > 100 µM | > 100 µM |  |  |  |  |  |  |  |  | > 100 µM |  | 
5 | CCC1C(C)c2c([nH]c3ccccc23)C2C(=O)N(c3ccccc3)C(=O)C21 (centres undefined) |  |  | 27.1 µM | 28.8 µM |  | 89.2 µM | 71.9 µM | 49.3 µM | 26.3 µM |  |  |  |  |  |  |  |  |  |  | 
6 | Cc1ccc(S(=O)(=O)N(/N=C(\N)Oc2ccc(Cl)cc2)C(=N)Oc2ccc(Cl)cc2)cc1 | > 100 µM | > 100 µM | > 100 µM | > 100 µM | > 100 µM | > 100 µM | > 100 µM | > 100 µM | > 100 µM |  |  |  |  |  |  |  |  |  |  | 
7 | O=C(CC(=O)N1N=C(c2ccccc2)C(N=Nc2ccc(C(=O)O)cc2)C1=O)Nc1ccc(F)cc1 (centres undefined) | 81.7 µM | 28.8 µM | 56.2 µM | 46.9 µM | > 100 µM | > 100 µM |  |  | > 100 µM |  |  |  |  |  |  |  |  |  |  | 
8 | Cn1c2ccccc2c(=Nc2ccccc2)c2c3ccccc3[nH]c21 | 3.08 µM | 2.52 µM |  | 2.06 µM | 2.39 µM | 2.2 µM |  | 11.7 µM | 3.11 µM | 1.34 µM | 1.26 µM |  | 0.787 µM | 1.03 µM |  | 1.24 µM | 0.32 µM | 6.2 µM | 1.69 µM | 0.942 µM
9 | Cc1nc(C)c(C(=O)Nc2cccc3c2C(=O)NC3=O)cc1C(=O)Nc1cccc2c1C(=O)NC2=O | > 100 µM | > 100 µM | > 100 µM | > 100 µM | > 100 µM | > 100 µM | > 100 µM | > 100 µM | > 100 µM |  |  |  |  |  |  |  |  |  |  | 
10 | N/C(=N\NS(=O)(=O)c1ccccc1)Oc1ccc(Cl)cc1 | > 100 µM | > 100 µM | > 100 µM | > 100 µM | > 100 µM | > 100 µM | > 100 µM | > 100 µM | > 100 µM |  |  |  |  |  |  |  |  |  |  | 
11 | Nc1ccc(-c2nc3ccc4[nH]ncc4c3c3c2CCCC3)cc1F | 3.24 µM | 5.99 µM | 18.5 µM | 4.53 µM | 11.2 µM | 22.4 µM | 12.2 µM | 5.82 µM | 13.2 µM | 0.636 µM | 0.6 µM | 1.89 µM | 0.986 µM | 0.828 µM | 1.5 µM | 1.96 µM | 1.27 µM |  |  | 1.7 µM
12 | O=C(c1cc(O)ccc1O)c1ccccc1C(Cl)(Cl)Cl | > 100 µM | > 100 µM | > 100 µM | > 100 µM | > 100 µM | > 100 µM | > 100 µM | > 100 µM | > 100 µM |  |  |  |  |  |  |  |  |  |  | 
13 | COc1ccc(C2OC(=O)c3c2ccc2ccccc32)c(C)c1 (centres undefined) | 21.2 µM | > 100 µM |  | 6.82 µM | 80.1 µM | 17.7 µM |  | 37 µM | 88.2 µM |  |  |  |  |  |  |  |  | 97.1 µM |  | 
14 | N#Cc1cccc(NC(=O)c2ccc(C(=O)O)c(C(=O)c3ccc(C(=O)O)c(C(=O)Nc4cccc(C#N)c4)c3)c2)c1 | > 100 µM | > 100 µM | > 100 µM | > 100 µM | > 100 µM | > 100 µM | > 100 µM | > 100 µM | > 100 µM |  |  |  |  |  |  |  |  |  |  | 
15 | C=C(CN1CCN(c2ccccc2OC)CC1)c1ccc(C(=O)Nc2ccccc2N)cc1 |  | 18.3 µM | 19.7 µM | 11.3 µM | 44.5 µM | 9.07 µM |  |  | 0.0874 µM |  | 6.02 µM | 5.64 µM | 2.58 µM | 1.2 µM |  | 0.0129 µM |  | > 50 µM | 9.64 µM | 5.73 µM
16 | COc1ccc(-c2nn(-c3cccc(Cl)c3)cc2C=C(C#N)C#N)cc1 | 5.95 µM | 4.44 µM | 4.9 µM | 5.87 µM | 3.98 µM | 6.48 µM | 4.76 µM | 6.12 µM | > 100 µM | 1.23 µM | 1.73 µM | 2.2 µM | 2.28 µM | 2.6 µM | 1.43 µM | 3.35 µM | 2.12 µM |  |  | 1.26 µM
17 | COc1ccc2cccc(C(=O)c3ccc(C)c4c3CCC4)c2c1 | 83.7 µM | > 100 µM | > 100 µM | 36.8 µM |  | > 100 µM | > 100 µM | 97.2 µM | > 100 µM |  |  |  |  |  |  |  |  |  |  | 
18 | CCOC(=O)C1N(S(=O)(=O)c2ccc(C)cc2)CCC12c1ccccc1N(C(C)=O)C2C(/C=C/C(=O)OC)=C/C(=O)OC (centres undefined) | > 100 µM | > 100 µM | > 100 µM | > 100 µM | > 100 µM | > 100 µM | > 100 µM |  | > 100 µM |  |  |  |  |  |  |  |  |  |  | 
19 | C/C1=C\[C@H](C)C[C@H](C)OC(=O)C[C@H](c2ccc(O)cc2)NC(=O)[C@@H](Cc2c(Br)[nH]c3ccccc23)N(C)C(=O)[C@H](C)NC(=O)[C@@H](C)C1 | 0.137 µM and 0.5 µM | 0.705 µM and 5.15 µM | 0.323 µM and 0.255 µM | 0.578 µM and 0.391 µM | 0.532 µM and 0.535 µM | 0.428 µM and 0.26 µM | > 23.7 µM | 4.54 µM | > 45.9 µM | 0.0703 µM | 0.0329 µM | 0.0393 µM | 0.0451 µM | 0.0982 µM | 0.114 µM | 0.0738 µM | 0.0764 µM |  |  | 0.0304 µM
20 | Cc1cc(C)cc(-n2c3nc(=O)n(C)c(=O)c-3nc3ccccc32)c1 | > 100 µM | 59.8 µM | 12.6 µM | 30.8 µM |  | > 100 µM | 61 µM | 52.4 µM | 76.4 µM |  |  |  |  |  |  |  |  |  |  | 
21 | C[Si](C)(C)/C=C/CCC(C=O)(CCCl)c1ccccc1 (centres undefined) | > 100 µM | 32.3 µM | 38.1 µM | 33.9 µM | 89.1 µM | > 100 µM | > 100 µM | 53.8 µM | > 100 µM |  |  |  |  |  |  |  |  |  |  | 
22 | c1ccc2c(CNCCCCCCNCc3cccc4ccccc34)cccc2c1 | 33.6 µM | 4.35 µM | 30.6 µM | 19.9 µM | 20.5 µM | 25.2 µM | 9.62 µM | 6.46 µM | 25.3 µM |  |  |  |  |  |  |  |  |  |  | 
23 | Cc1c[nH]c2c1C13CC1CN(C(=O)c1cc4cc(NC(=O)c5cc6ccccc6o5)ccc4[nH]1)C3=CC2=O (centres undefined) |  | 11.2 nM and 0.117 µg/mL |  | < 0.001 µM |  | < 0.001 µM | 0.0682 µM | 0.0031 µM | < 0.001 µM |  | > 1.17 ng/mL | > 1.17 ng/mL | > 1.17 ng/mL |  | > 1.17 ng/mL | > 1.17 ng/mL | > 1.17 ng/mL |  |  | > 1.17 ng/mL
24 | CC#C[C@@]1(O)CCCC[C@@H]1O | > 100 µM | > 100 µM | > 100 µM | > 100 µM | > 100 µM | > 100 µM | > 100 µM | > 100 µM | > 100 µM |  |  |  |  |  |  |  |  |  |  | 
25 | Cc1cc(NS(=O)(=O)c2ccc(Nc3c4ccccc4nc4c(C(=O)Nc5ccc(S(=O)(=O)N=C(N)N)cc5)cccc34)cc2)no1 | > 100 µM | > 100 µM | > 100 µM | > 100 µM | > 100 µM | > 100 µM | > 100 µM | > 100 µM | > 100 µM |  |  |  |  |  |  |  |  |  |  | 
26 | C=CN1C(=O)OC(c2ccccc2)C1c1ccccc1 (centres undefined) | > 100 µM | > 100 µM | > 100 µM | > 100 µM | > 100 µM | > 100 µM | > 100 µM | > 100 µM | > 100 µM | > 100 µM | > 100 µM | > 100 µM | > 100 µM | > 100 µM | > 100 µM | > 100 µM | > 100 µM |  |  | > 100 µM
27 | Nc1nc2c(ncn2C2OC(CO)C(O)C2N)c(=O)[nH]1 (centres undefined) | > 100 µM | > 100 µM | > 100 µM |  | > 100 µM | > 100 µM | > 100 µM | > 100 µM | > 100 µM |  |  |  |  |  |  |  |  |  |  | 
28 | COC(=O)C1=C(OC)c2cc3c(cc2C(c2cc(OC)c(OC)c(OC)c2)C1C(=O)OC)OCO3 (centres undefined) | > 100 µM | > 100 µM | > 100 µM | > 100 µM | > 100 µM | > 100 µM | > 100 µM | > 100 µM | > 100 µM |  |  |  |  |  |  |  |  |  |  | 
29 | CC1=NNC(=NCCN(C)C)C/C1=C/c1ccccc1Cl | > 100 µM | > 100 µM | > 100 µM | > 100 µM |  | > 100 µM |  |  | > 100 µM |  |  |  |  |  |  |  |  |  |  | 
30 | Cc1cnc[nH]c1=O | > 100 µM | > 100 µM | > 100 µM | > 100 µM |  | > 100 µM | > 100 µM | > 100 µM | > 100 µM |  |  |  |  |  |  |  |  |  |  | 
